The values below come from patent US9750817B2, “Amphotericin B derivatives” (priority 2015, dated 2017).

Data set [1] is described as follows: Solubility in double-distilled water. Format: physicochemical. The method, then: Physical characteristics of AMB derivatives and of AMB were tested, including solubility.
Data set [2] relates to Aspergillus fumigatus. As to the kind of experiment: MIC/MFC broth dilution (CLSI), clinical isolates. Format: cell-based. Conditions: A. fumigatus. The procedure: (§1) Isolates of Aspergillus fumigatus, Aspergillus flavus, Aspergillus terreus Aspergillus niger, Rhizopus oryzae, Candida albicans and Candida krusei were isolated from patients in Israeli hospitals and used for in vitro efficacy studies.
(§2) Efficacy was evaluated by measuring minimum inhibitory concentration (MIC) and minimum fungicidal concentration (MFC) values for fungal isolates. Testing of isolates was performed according to the Clinical & Laboratory Standards Institute (CLSI) method. (CLSI. 2008. M27-A3 Reference method for broth dilution antifungal susceptibility testing of yeasts; Approved Standard—3rd edition. Clinical and Laboratory Standards Institute, Wayne). RPMI MOPS media was used throughout the experiment as growth and dilution media. Spores and yeast cells were harvested in 0.05% Tween from 24-48 h and cultures were grown in rich yeast extract-agar-glucose (YAG) medium (composed of: 0.5% w/v yeast extract, 1% w/v glucose, 10 millimolar (mM) MgCl2, supplemented with 0.1% v/v trace elements solution, and 0.2% v/v vitamin mix). The spores and the yeast cells were counted and diluted to a final concentration of 2.5×10^4 per ml. A stock solution of 5 mg/ml was prepared in dimethylsulfoxide for free AMB. Compounds 4 and 6 were prepared in sterile saline. Double dilutions of each drug were performed in 100 μL volume of RPMI-MOPS in 96 well plates beginning with a final concentration of 32 micrograms (μg)/well of each drug to 0.06 μg/well. 2500 spores or yeast cells were added to each well. Results were recorded 48 h post incubation at 37° C. […] The MFC was defined as the lowest drug concentration that yielded three or fewer colonies (i.e. 99% of the inoculum was killed).
On the technique in general: In broth dilution the organism is exposed to a series of concentrations in liquid medium.

Data set [3] concerns ICR mice. Briefly: In vivo toxicity, intravenous injection. To be noted: female ICR mice, intravenous. The procedure: In-vivo toxicity was determined in mice using 6 week old female ICR mice (n=6). Different concentrations of each formulation were injected intravenously through the tail vein, 0.2 ml per mouse, until death was observed. PAD-AMB conjugates were prepared in sterile saline solution and were filtered through 0.45-micrometer pore-size cellulose acetate sterile filters prior to injection.

Data set [4] has as its system human erythrocytes. As to the kind of experiment: In-vitro toxicity (hemolysis) study. Format: cell-based. To be noted: 6 μg/ml. The method, then:
Reference is made to FIG. 4B. Fresh human erythrocytes were diluted 1:100 in PBS, and incubated in an Eppendorf tube while rotating slowly in the presence of 6 μg/ml of each of compound 4 and compound 6. Amphotericin B was used as positive control. Sterile double distilled water served as a control for 100% hemolysis. After 1, 3, 5 and 21 h, 20 μl of each test tube were removed and diluted in 180 μl PBS. Samples were centrifuged for 10 minutes at 1200 RPM and the optical density of the supernatant was measured at 425 nm.

A short description of data set [5]: Solubility in 0.9% saline after vortex, sonication and centrifuge. Format: physicochemical.
Data set [6] can be described thus: Stability (hydrolysis) in phosphate buffered saline. Format: physicochemical.
In data set [7] the test system is Aspergillus terreus. As to the kind of experiment: MIC/MFC broth dilution (CLSI), clinical isolates. Format: cell-based. Conditions: listed as printed C. terreus, 1 isolate, 48 h at 37° C. The procedure:
as §1, §2

Data set [8] deals with Aspergillus niger. As to the kind of experiment: MIC/MFC broth dilution (CLSI), clinical isolates. Format: cell-based. Conditions: A. niger, 3 isolates, 48 h at 37° C. The procedure: as §1, §2
Data set [9] has as its system Rhizopus oryzae. As to the kind of experiment: MIC/MFC broth dilution (CLSI), clinical isolates. Format: cell-based. To be noted: 1 isolate, 48 h at 37° C. The procedure: as §1, §2
The test system of data set [10] is Aspergillus flavus. As to the kind of experiment: MIC/MFC broth dilution (CLSI), clinical isolates. Format: cell-based. Conditions: A. Flavus, 3 isolates, 48 h at 37° C. The method, then:
as §1, §2

Data set [11] has as its system Candida albicans. As to the kind of experiment: MIC/MFC broth dilution (CLSI), clinical isolates. Format: cell-based. Conditions: C. albicans, 2 isolates, 48 h at 37° C. The method, then: as §1, §2
For data set [12], the system named is Candida krusei. Briefly: MIC/MFC broth dilution (CLSI), clinical isolates. Format: cell-based. To be noted: C. krusei, 3 isolates, 48 h at 37° C. The method, then:
as §1, §2

In data set [13] the test system is mouse embryonic fibroblasts (MEFs). Briefly: MTT viability assay in mouse embryonic fibroblasts. Format: cell-based. The method, then: Reference is made to FIG. 4C. Mouse embryonic fibroblasts were used in this example. 1×10^4 mouse embryonic fibroblasts (MEFs) per well were seeded in 96-well plates and incubated at 37° C. After 24 h the media was replaced with 100 μl culture medium containing serial dilutions of AMB, compounds 4 or 6, or left untreated. After 24 h, the media was replaced by fresh media (100 μl per well) containing 1 mg/ml MTT (3-(4,5-Dimethylthiazol-2-yl)-2,5-Diphenyltetrazolium Bromide, ((Biological Industries, Israel)) reagent and the cells were incubated for an additional 3 h at 37° C. MTT-formazan crystals were dissolved by the addition of 100 μl per well of extraction solution (20% SDS, 50% N,N-dimethyl formamide (DMF), pH=4.7) and incubation for 16 h at 37° C. Absorbance at 570 nm was recorded on a Biotek Synergy HT plate reader.
The results were expressed as the percentage of living cells relative to the untreated control and are depicted in FIG. 4C. The inhibition concentration (IC50) value is the concentration of the compound which inhibited cell growth by 50%.
On the technique in general: Formazan colour is commonly taken as a measure of viable cells.

For data set [14], the system named is C. albicans (CBS562). Briefly: MIC of compound 6, AMB and FMOC-6. Format: cell-based, Candida albicans. The method, then: as §2
(§3) In addition, the amine protected equivalent of compound 6 in which the amine of compound 6 was protected with an FMOC group was tested (designated FMOC-6) to determine MIC versus AMB and versus compound 6 against A. fumigatus (Af 293) and C. albicans (CBS562).

The test system of data set [15] is A. fumigatus (Af 293). Briefly: MIC of compound 6, AMB and FMOC-6. Format: cell-based, Aspergillus fumigatus. The method, then:
as §2, §3

Values after ≈ are worked out from the molar mass of the structure shown. Read-outs that look alike come from different tables or passages of the source.

Consider `CC1C=CC=CC=CC=CC=CC=CC=CC(OC2OC(C)C(O)C(NC(=O)CCOCCOCCOCCOCCN)C2O)CC2OC(O)(CC(O)CC(O)C(O)CCC(O)CC(O)CC(=O)OC(C)C(C)C1O)CC(O)C2C(=O)O` (centres unmarked) [AMB-PEG4-amine], for which, in [1] (double-distilled water), the Solubility is 300 µg/mL (≈ 256 µM). This compound had an MIC in data set [2] (strain not stated) of 2 to 3 µg/mL.
Take `COC(=O)C1C(O)CC2(O)CC(O)CC(O)C(O)CCC(O)CC(O)CC(=O)OC(C)C(C)C(O)C(C)C=CC=CC=CC=CC=CC=CC=CC(OC3OC(C)C(O)C(NC(=O)CCOCCOCCOCCOCCN)C3O)CC1O2` (centres unmarked) [AME-PEG4-amine]: in data set [1], the Solubility result is listed as “Insoluble”.
Still for that read-out and setting: next, `COC(=O)[C@H]1[C@@H]2C[C@@H](O[C@@H]3O[C@H](C)[C@@H](O)[C@H](N)[C@@H]3O)/C=C/C=C/C=C/C=C/C=C/C=C/C=C/[C@H](C)[C@@H](O)[C@@H](C)[C@H](C)OC(=O)C[C@H](O)C[C@H](O)CC[C@@H](O)[C@H](O)C[C@H](O)C[C@](O)(C[C@@H]1O)O2` [Amphotericin B methyl ester, reference compound]: under 1 µg/mL.
`C[C@@H]1[C@H](O)[C@@H](C)/C=C/C=C/C=C/C=C/C=C/C=C/C=C/[C@H](O[C@@H]2O[C@H](C)[C@@H](O)[C@H](NC(=O)CCOCCOCCOCCOCCOCCOCCOCCOCCN)[C@@H]2O)C[C@@H]2O[C@](O)(C[C@@H](O)C[C@@H](O)[C@H](O)CC[C@@H](O)C[C@@H](O)CC(=O)O[C@H]1C)C[C@H](O)[C@H]2C(=O)O` [Compound 4, amphotericin B amide-PEG(8)-amine]: the “mouse LD50 fold higher than AMB” value in [3] is given as “at least 20 fold”. The “signs of toxicity at the highest injectable doses” value in data set [3] is “did not show any signs of toxicity”. Further, in data set [3] (tail vein), the LD50 result is given as “not reached”. Further, the “Maximum Dose” value in [3] (tail vein) is given as 22 mg/kg. The “hemolytic activity” value in data set [4] (after 3 h of agitation) is reported as “small hemolytic activity”. Besides, the “toxicity to erythrocytes” value in [4] (assay conditions of FIG. 4B) is “less toxic (about four times less)”. The “increased solubility relative to corresponding non-PEG-conjugated AMB compounds” value in data set [5] is given as “greater than 5500 fold”. Besides, the “hydrolysis after 4 hours” value in [6] (4 hours) is “no hydrolysis could be observed”. Further, the “level of hydrolysis after 24 hours” value in data set [6] (24 hours) was 0.51%. In data set [1] (double-distilled water), the Solubility was found to be 5500 µg/mL (≈ 4080 µM). Also, the MFC in data set [7] is 32 µg/mL (≈ 23.7 µM); in [8], 1 to 4 µg/mL; in [9], 8 µg/mL (≈ 5.94 µM); in data set [10], 4 to 8 µg/mL; in data set [11], 4 µg/mL (≈ 2.97 µM); in data set [2] (4 isolates, 48 h at 37° C.) it was 4 to 16 µg/mL. Also, the MFC in data set [12] stood at 8 µg/mL (≈ 5.94 µM). In addition, the MIC was 32 µg/mL (≈ 23.7 µM) in data set [7]; 1 to 4 µg/mL in data set [8]; 8 µg/mL (≈ 5.94 µM) in data set [9]; 4 to 8 µg/mL in data set [10]; 1 to 2 µg/mL in data set [11]; 4 to 16 µg/mL in [2] (4 isolates, 48 h at 37° C.). In addition, the minimal inhibitory concentration (MIC) in [12] is 4 to 8 µg/mL. Besides, the “IC50 (concentration which inhibited cell growth by 50%)” value in data set [13] (24 h exposure, MTT) is 280 µg/mL. Besides, the “times less toxic than AMB” value in data set [13] (from IC50) was determined as 40 times.
For `COC(=O)C1C(O)CC2(O)CC(O)CC(O)C(O)CCC(O)CC(O)CC(=O)OC(C)C(C)C(O)C(C)C=CC=CC=CC=CC=CC=CC=CC(OC3OC(C)C(O)C(NC(=O)CCOCCOCCOCCOCCOCCOCCOCCOCCNC(=O)OCC4c5ccccc5-c5ccccc54)C3O)CC1O2` (centres unmarked) [FMOC-6], the MIC in [14] and in data set [15] was over 32 µg/mL throughout.

The term Solubility denotes the dissolved amount per volume that the medium holds. The term MIC denotes the least concentration at which growth counts as inhibited.
